Results taken from patent publication US11149033B2, “Heteroaryl compound, enantiomer, diastereomer or pharmaceutically acceptable salt thereof, and antiviral composition containing same as active ingredient” (priority 2016, dated 2021).
Where two headings read alike, the source gives them in different places.

Columns and labels:
[1] = tested on: A/California/07/2009 (H1N1); assay: Antiviral activity (drug efficacy evaluation by concentration) against A/California/07/2009 (H1N1); assay type: cell-based, A type influenza virus; details: Influenza A virus
A/Perth/16/2009 (H3N2) = assay: Antiviral activity (drug efficacy evaluation by concentration) against A/Perth/16/2009 (H3N2); assay type: cell-based, A type influenza virus; details: Influenza A virus
[2] = CC50, third EC50/CC50 column pair (c7), beside the EC50 of c6
[3] = H1N1, A/California/07/2009 (H1N1), read-out: EC50 A/California/07/2009 (H1N1)
[4] = CC50 B/Florida/04/2006, cytotoxicity in the B/Florida/04/2006 assay
[5] = H3N2, A/Perth/16/2009 (H3N2), read-out: EC50 A/Perth/16/2009 (H3N2)

Cc1cc(Nc2nnc(CCc3ccccc3C)o2)ccc1Br [Compound 90, N-(4-bromo-3-methylphenyl)-5-(2-methylphenethyl)-1,3,4-oxadiazol-2-amine]
EC50 ([1]; H1N1, read-out: EC50): > 50 µM
melting point: 122.7 °C
CC50 (in vitro; CC50, beside the EC50 of c2): > 50 µM
CC50 (in vitro; CC50, beside the EC50 of c4): > 50 µM
CC50 (in vitro; [2]): > 50 µM
EC50 (A/Perth/16/2009 (H3N2); H3N2, read-out: EC50): > 50 µM

c1ccc(-c2nnc(SCc3ccccc3-c3ccccc3)o2)cc1 [Compound 43, 2-(([1,1′-biphenyl]-2-ylmethyl)thio)-5-phenyl-1,3,4-oxadiazole]
EC50 [1, 3]: > 50 µM
CC50 (in vitro; [4]): > 50 µM
EC50 (A/Perth/16/2009 (H3N2); [5]): > 50 µM

O=C(c1cccc(-c2ccccc2)c1)c1nnc(Cc2ccc(Br)cc2)o1 [Compound 69, [1,1′-biphenyl]-3-yl(5-(4-bromobenzyl)-1,3,4-oxadiazol-2-yl)methanone]
EC50 [1, 3]: > 50 µM
melting point: 166.4 °C
CC50 (in vitro; [4]): > 50 µM
EC50 (A/Perth/16/2009 (H3N2); [5]): 49.3 µM

Cc1ccccc1CSc1ncc(C(=O)n2nc(C)c(Br)c2C)o1 [Compound 55, (4-bromo-3,5-dimethyl-1H-pyrazol-1-yl)(2-((2-methylbenzyl)thio)oxazol-5-yl)methanone]
melting point: 123.6 °C
CC50 (in vitro; [4]): > 50 µM

CC(C)c1ccccc1/C=C/c1nnc(Cc2ccc(OC(F)(F)F)cc2)o1 [Compound 81, (E)-2-(2-isopropylstyryl)-5-(4-(trifluoromethoxy)benzyl)-1,3,4-oxadiazole]
melting point: 91.6 °C
CC50 (in vitro; CC50, beside the EC50 of c2): > 50 µM
CC50 (in vitro; CC50, beside the EC50 of c4): > 50 µM
CC50 (in vitro; [2]): > 50 µM

OC(c1cccc(-c2ccccc2)c1)c1nnc(Cc2ccc(Br)cc2)o1 (stereo not shown) [Compound 70, [1,1′-biphenyl]-3-yl(5-(4-bromobenzyl)-1,3,4-oxadiazol-2-yl)methanol]
melting point: 137.6 °C
CC50 (in vitro; [4]): > 50 µM
EC50 (A/Perth/16/2009 (H3N2); [5]): 37.5 µM

Clc1ccccc1/C=C/c1nnc(Cc2ccc(Br)cc2)o1 [Compound 166, 2-(4-bromobenzyl)-5-(2-chlorostyryl)-1,3,4-oxadiazole]
melting point: 136.3 °C
CC50 (in vitro; CC50, beside the EC50 of c2): > 50 µM
CC50 (in vitro; CC50, beside the EC50 of c4): > 50 µM
CC50 (in vitro; [2]): > 50 µM

CC(C)c1ccccc1/C=C/c1nnc(Nc2ccc(Br)cc2)o1 [Compound 117, (E)-N-(4-bromophenyl)-5-(2-isopropylstyryl)-1,3,4-oxadiazol-2-amine]
EC50 ([1]; H1N1, read-out: EC50): 31.4 µM
melting point: 225.6 °C
CC50 (in vitro; CC50, beside the EC50 of c2): > 50 µM
CC50 (in vitro; CC50, beside the EC50 of c4): > 50 µM
EC50 (A/Perth/16/2009 (H3N2); H3N2, read-out: EC50): 43.5 µM

CC(=Cc1ccccc1C)c1nnc(Cc2ccc(Br)cc2)o1 [Compound 138, 2-(4-bromobenzyl)-5-(1-(o-tolyl)prop-1-en-2-yl)-1,3,4-oxadiazole]
EC50 ([1]; H1N1, read-out: EC50): 0.161 µM
CC50 (in vitro; CC50, beside the EC50 of c2): > 50 µM
CC50 (in vitro; CC50, beside the EC50 of c4): > 50 µM
CC50 (in vitro; [2]): > 50 µM

c1ccc(-c2ccccc2CSc2nnc(-c3cnn(-c4ccccc4)c3)o2)cc1 [Compound 36, 2-(([1,1′-biphenyl]-2-ylmethyl)thio)-5-(1-phenyl-1H-pyrazol-4-yl)-1,3,4-oxadiazole]
melting point: 114.2 °C
CC50 (in vitro; [4]): > 50 µM
EC50 (A/Perth/16/2009 (H3N2); [5]): > 50 µM

Cc1cccc(C)c1CSc1nnc(Cn2nc(C)c(Br)c2C)o1 [Compound 40, 2-((4-bromo-3,5-dimethyl-1H-pyrazol-1-yl)methyl)-5-((2,6-dimethylbenzyl)thio)-1,3,4-oxadiazole]
EC50 [1, 3]: > 50 µM
melting point: 106.3 °C
CC50 (in vitro; [4]): > 50 µM

Cc1cccc(C)c1Nc1nnc(C(O)c2ccccc2)o1 (stereo not shown) [Compound 77, (5-((2,6-dimethylphenyl)amino)-1,3,4-oxadiazol-2-yl)(phenyl)methanol]
melting point: 179 °C
CC50 (in vitro; [4]): > 50 µM

Cc1nn(C(=O)c2ccc(Oc3ccccc3C(C)C)o2)c(C)c1Br [Compound 57, (4-bromo-3,5-dimethyl-1H-pyrazol-1-yl)(5-(2-isopropylphenoxy)furan-2-yl)methanone]
melting point: 103.3 °C
CC50 (in vitro; [4]): > 50 µM

Cc1cccc(C)c1/C=C/c1nnc(Cc2ccc(Br)cc2)o1 [Compound 134, 2-(4-bromobenzyl)-5-(2,6-dimethylstyryl)-1,3,4-oxadiazole]
EC50 ([1]; H1N1, read-out: EC50): > 50 µM
CC50 (in vitro; CC50, beside the EC50 of c2): > 50 µM
CC50 (in vitro; CC50, beside the EC50 of c4): > 50 µM
CC50 (in vitro; [2]): > 50 µM
EC50 (A/Perth/16/2009 (H3N2); H3N2, read-out: EC50): > 50 µM

Brc1ccc(Nc2nnc(/C=C/c3cccc4ncccc34)o2)cc1 [Compound 121, (E)-N-(4-bromophenyl)-5-(2-(quinolin-5-yl)vinyl)-1,3,4-oxadiazol-2-amine]
melting point: 246.5 °C
CC50 (in vitro; CC50, beside the EC50 of c2): > 50 µM
CC50 (in vitro; CC50, beside the EC50 of c4): > 50 µM
CC50 (in vitro; [2]): > 50 µM

Fc1cc(Nc2nnc(/C=C/c3ccccc3Br)o2)ccc1Br [Compound 88, (E)-N-(4-bromo-3-fluorophenyl)-5-(2-bromostyryl)-1,3,4-oxadiazol-2-amine]
EC50 ([1]; H1N1, read-out: EC50): > 50 µM
melting point: 225.1 °C
CC50 (in vitro; CC50, beside the EC50 of c2): > 50 µM
CC50 (in vitro; CC50, beside the EC50 of c4): > 50 µM
CC50 (in vitro; [2]): > 50 µM
EC50 (A/Perth/16/2009 (H3N2); H3N2, read-out: EC50): > 50 µM

Fc1ccc(/C=C/c2nnc(Cc3cccc(Cl)c3)o2)c(Cl)c1 [Compound 179, (E)-2-(2-chloro-4-fluorostyryl)-5-(3-chlorobenzyl)-1,3,4-oxadiazole]
EC50 ([1]; H1N1, read-out: EC50): 0.632 µM
melting point: 104 °C
CC50 (in vitro; CC50, beside the EC50 of c2): > 50 µM
CC50 (in vitro; CC50, beside the EC50 of c4): > 50 µM
CC50 (in vitro; [2]): > 50 µM

Brc1ccc(Cc2nnc(-c3cc4ccccc4o3)o2)cc1 [Compound 156, 2-(benzofuran-2-yl)-5-(4-bromobenzyl)-1,3,4-oxadiazole]
melting point: 145.7 °C
CC50 (in vitro; CC50, beside the EC50 of c2): > 50 µM
CC50 (in vitro; CC50, beside the EC50 of c4): > 50 µM
CC50 (in vitro; [2]): > 50 µM

Cc1ccccc1CC1(c2nnc(Cc3ccc(Br)cc3)o2)CC1 [Compound 129, 2-(4-bromobenzyl)-5-(1-(2-methylbenzyl)cyclopropyl)-1,3,4-oxadiazole]
melting point: 72.2 °C
CC50 (in vitro; CC50, beside the EC50 of c2): > 50 µM
CC50 (in vitro; CC50, beside the EC50 of c4): > 50 µM
CC50 (in vitro; [2]): > 50 µM
EC50 (A/Perth/16/2009 (H3N2); H3N2, read-out: EC50): 6.13 µM

Brc1ccc(Cc2nnc(/C=C/c3ccccc3Br)o2)cc1 [Compound 128, (E)-2-(4-bromobenzyl)-5-(2-bromostyryl)-1,3,4-oxadiazole]
melting point: 156.1 °C
CC50 (in vitro; CC50, beside the EC50 of c2): > 50 µM
CC50 (in vitro; CC50, beside the EC50 of c4): > 50 µM
CC50 (in vitro; [2]): > 50 µM

Clc1ccc2oc(-c3nnc(Cc4ccc(Br)cc4)o3)cc2c1 [Compound 157, 2-(4-bromobenzyl)-5-(5-chlorobenzofuran-2-yl)-1,3,4-oxadiazole]
melting point: 149.7 °C
CC50 (in vitro; CC50, beside the EC50 of c2): > 50 µM
CC50 (in vitro; CC50, beside the EC50 of c4): > 50 µM
CC50 (in vitro; [2]): > 50 µM

Cc1cccc(C)c1Nc1nnc(C(=O)c2ccc(F)c(Cl)c2)o1 [Compound 78, (3-chloro-4-fluorophenyl)(5-((2,6-dimethylphenyl)amino)-1,3,4-oxadiazol-2-yl)methanone]
melting point: 252.8 °C
CC50 (in vitro; [4]): > 50 µM

Cc1cccc(/C=C/c2nnc(Cc3ccc(Br)cc3)o2)c1C [Compound 150, 2-(4-bromobenzyl)-5-(2,3-dimethylstyryl)-1,3,4-oxadiazole]
melting point: 126.9 °C
CC50 (in vitro; CC50, beside the EC50 of c2): > 50 µM
CC50 (in vitro; CC50, beside the EC50 of c4): > 50 µM
CC50 (in vitro; [2]): > 50 µM
EC50 (A/Perth/16/2009 (H3N2); H3N2, read-out: EC50): > 50 µM

Brc1ccc(Nc2nnc(/C=C/c3ccccc3Oc3ccccc3)o2)cc1 [Compound 125, (E)-N-(4-bromophenyl)-5-(2-phenoxystyryl)-1,3,4-oxadiazol-2-amine]
EC50 ([1]; H1N1, read-out: EC50): 36.7 µM
CC50 (in vitro; CC50, beside the EC50 of c2): > 50 µM
CC50 (in vitro; CC50, beside the EC50 of c4): > 50 µM
CC50 (in vitro; [2]): > 50 µM
EC50 (A/Perth/16/2009 (H3N2); H3N2, read-out: EC50): > 50 µM

Fc1cc(Cl)ccc1/C=C/c1nnc(Cc2cccc(Br)c2)o1 [Compound 190, 2-(3-bromobenzyl)-5-(4-chloro-2-fluorostyryl)-1,3,4-oxadiazole]
melting point: 107.2 °C
CC50 (in vitro; CC50, beside the EC50 of c4): 40.1 µM

Cc1nn(C(=O)c2ccc(Sc3ccccc3C(C)C)o2)c(C)c1Br [Compound 56, (4-bromo-3,5-dimethyl-1H-pyrazol-1-yl)(5-((2-isopropylphenyl)thio)furan-2-yl)methanone]
melting point: 169.7 °C
CC50 (in vitro; [4]): > 50 µM

O=C(Nc1ccc(Br)cc1)c1nnc(SCc2ccccc2-c2ccccc2)o1 [Compound 72, 5-(([1,1′-biphenyl]-2-ylmethyl)thio)-N-(4-bromophenyl)-1,3,4-oxadiazole-2-carboxamide]
EC50 [1, 3]: 0.73 µM
CC50 (in vitro; [4]): 25 µM
EC50 (A/Perth/16/2009 (H3N2); [5]): 23.5 µM

Brc1ccc(Nc2nnc(/C=C/c3ccccc3-c3ccccc3)o2)cc1 [Compound 124, (E)-5-(2-([1,1′-biphenyl]-2-yl)vinyl)-N-(4-bromophenyl)-1,3,4-oxadiazol-2-amine]
melting point: 239.3 °C
CC50 (in vitro; CC50, beside the EC50 of c2): > 50 µM
CC50 (in vitro; CC50, beside the EC50 of c4): > 50 µM
CC50 (in vitro; [2]): > 50 µM
EC50 (A/Perth/16/2009 (H3N2); H3N2, read-out: EC50): > 50 µM
